Laboratory results from patent publication US8598365B2, “Herbicides” (Syngenta Limited, priority 2007, dated 2013).

What was measured:
Format in all cases: in vivo
[1] = tested on: Alopecurus myosuroides (ALOMY); test: Example B pre-emergence herbicidal activity; settings: 312 h, rate 250 g/ha, evaluated after 13 days, read-out: Pre-Emergence Activity ALOMY (100=total damage to plant; 0=no damage to plant)
Description: (§1) Seeds of a variety of test species were sown in standard soil in pots. After cultivation for one day (pre-emergence) or after 8 days cultivation (post-emergence) under controlled conditions in a glasshouse (at 24/16° C., day/night; 14 hours light; 65% humidity), the plants were sprayed with an aqueous spray solution derived from the formulation of the technical active ingredient in acetone/water (50:50) solution containing 0.5% Tween 20 (polyoxyethelyene sorbitan monolaurate, CAS RN 9005-64-5).
(§2) The test plants were then grown in a glasshouse under controlled conditions in a glasshouse (at 24/16° C., day/night; 14 hours light; 65% humidity) and watered twice daily. After 13 days for pre and post-emergence, the test was evaluated (100=total damage to plant; 0=no damage to plant).
(§3) Alopecurus myosuroides (ALOMY), Avena fatua (AVEFA), Setaria faberi (SETFA), Echinochloa crus-galli (ECHCG), Solanum nigrum (SOLNI) and Amaranthus retoflexus (AMARE)

[2] = tested on: Amaranthus retoflexus (AMARE); test: Example B pre-emergence herbicidal activity; settings: Amaranthus retroflexus, 312 h, rate 250 g/ha, evaluated after 13 days, read-out: Pre-Emergence Activity AMARE (100=total damage to plant; 0=no damage to plant)
Description: as §1, §2, §3

Avena fatua (AVEFA) [3] = test: Example B pre-emergence herbicidal activity; settings: 312 h, rate 250 g/ha, evaluated after 13 days, read-out: Pre-Emergence Activity AVEFA (100=total damage to plant; 0=no damage to plant)
Description: as §1, §2, §3

[4] = tested on: Echinochloa crus-galli (ECHCG); test: Example B pre-emergence herbicidal activity; settings: 312 h, rate 250 g/ha, evaluated after 13 days, read-out: Pre-Emergence Activity ECHCG (100=total damage to plant; 0=no damage to plant)
Description: as §1, §2, §3

Setaria faberi (SETFA) [5] = test: Example B pre-emergence herbicidal activity; settings: 312 h, rate 250 g/ha, evaluated after 13 days, read-out: Pre-Emergence Activity SETFA (100=total damage to plant; 0=no damage to plant)
Description: as §1, §2, §3

[6] = tested on: Alopecurus myosuroides (ALOMY); test: Example B post-emergence herbicidal activity; settings: 312 h, rate 250 g/ha, evaluated after 13 days, read-out: Post-emergence activity ALOMY (100=total damage to plant; 0=no damage to plant)
Description: as §1, §2, §3

[7] = tested on: Amaranthus retoflexus (AMARE); test: Example B post-emergence herbicidal activity; settings: Amaranthus retroflexus, 312 h, rate 250 g/ha, evaluated after 13 days, read-out: Post-emergence activity AMARE (100=total damage to plant; 0=no damage to plant)
Description: as §1, §2, §3

Avena fatua (AVEFA) [8] = test: Example B post-emergence herbicidal activity; settings: 312 h, rate 250 g/ha, evaluated after 13 days, read-out: Post-emergence activity AVEFA (100=total damage to plant; 0=no damage to plant)
Description: as §1, §2, §3

[9] = tested on: Echinochloa crus-galli (ECHCG); test: Example B post-emergence herbicidal activity; settings: 312 h, rate 250 g/ha, evaluated after 13 days, read-out: Post-emergence activity ECHCG (100=total damage to plant; 0=no damage to plant)
Description: as §1, §2, §3

Setaria faberi (SETFA) [10] = test: Example B post-emergence herbicidal activity; settings: 312 h, rate 250 g/ha, evaluated after 13 days, read-out: Post-emergence activity SETFA (100=total damage to plant; 0=no damage to plant)
Description: as §1, §2, §3

Structure (SMILES) | pest or weed control at 250 g/ha [1] | pest or weed control at 250 g/ha [2] | pest or weed control at 250 g/ha (Avena fatua (AVEFA) [3]) | pest or weed control at 250 g/ha [4] | pest or weed control at 250 g/ha (Setaria faberi (SETFA) [5]) | pest or weed control at 250 g/ha [6] | pest or weed control at 250 g/ha [7] | pest or weed control at 250 g/ha (Avena fatua (AVEFA) [8]) | pest or weed control at 250 g/ha [9] | pest or weed control at 250 g/ha (Setaria faberi (SETFA) [10])
Cc1sc(-c2ccc(OC(F)F)cc2Cl)nc1C1=C(OC(=O)C(C)(C)C)[C@@H]2CC[C@@H](C2)C1=O [Compound P17] | 80% | 0% | 50% | 100% | 100% | 90% | 0% | 80% | 100% | 100%
CC(=O)OC1=C(c2nc(-c3ccc(Cl)cc3)ncc2C)C(=O)[C@H]2CC[C@@H]1C2 [Compound P18] | 20% | 0% | 0% | 70% | 60% | 10% | 40% | 0% | 80% | 90%
CC(=O)OC1=C(c2nc(-c3ccc(Cl)cc3)ncc2C)C(=O)[C@@H]2C[C@H]1C2(C)C [Compound P19] | 10% | 0% | 0% | 20% | 90% | 20% | 0% | 0% | 90% | 90%
CC(C)(C)C(=O)OC1=C(c2csc(-c3ccc(Cl)cc3)n2)C(=O)[C@@H]2CC[C@H]1C2 [Compound P22] | 0% | 0% | 0% | 0% | 30% | 0% | 0% | 0% | 20% | 70%
Cc1sc(-c2cccs2)nc1C1C(=O)[C@@H]2CC[C@@H](C2)C1=O (some centres unmarked) [Compound T2] | 0% | 0% | 0% | 0% | 50% | 0% | 0% | 0% | 30% | 70%
Cc1sc(-c2ccc(Cl)cc2Cl)nc1C1C(=O)[C@@H]2CC[C@@H](C2)C1=O (some centres unmarked) [Compound T3] | 60% | 0% | 0% | 80% | 90% | 90% | 0% | 60% | 100% | 100%
Cc1sc(-c2ccc(OC(F)(F)F)cc2)nc1C1C(=O)[C@@H]2CC[C@@H](C2)C1=O (some centres unmarked) [Compound T5, 3-[5-methyl-2-(4-trifluoromethoxyphenyl)thiazol-4-yl]bicyclo[3.2.1]octane-2,4-dione] | 50% | 0% | 0% | 80% | 90% | 70% | 0% | 0% | 100% | 100%
Cc1sc(-c2ccc(Cl)c(Cl)c2)nc1C1C(=O)[C@@H]2CC[C@@H](C2)C1=O (some centres unmarked) [Compound T9] | 30% | 0% | 0% | 50% | 50% | 60% | 0% | 0% | 70% | 100%
